66 compounds from patent publication US12162867B2, “Inhibitors of RNA helicase DHX9 and uses thereof” (ACCENT THERAPEUTICS, INC., priority 2022, dated 2024) can be followed below.

Molecules are shown by their SMILES.

The first test relates to circBRIP1 in HCT116 cells. Put plainly: DHX9 circBRIP1 cellular target engagement SYBR Green assay (qPCR). Conditions: Homo sapiens, HCT-116, circBRIP1, HCT116 cells; ^+ SyBr assay was used; read-out: DHX9 Cellular Target Engagement EC50. The class given is cell-based. In general terms: Real-time PCR tracks product formation cycle by cycle.
As for `Cc1cc(C(=O)Nc2cc(Cl)cc(NS(C)(=O)=O)c2)cn1-c1ccc(C#N)cn1` [Example 425], the EC50 came to 0.193 µM.
Still for that read-out and setting: in the case of `Cc1cc(C(=O)Nc2cc(Cl)cc(NS(C)(=O)=O)c2)cn1-c1ncc(C(F)(F)F)cn1` [Example 426] it was 0.226 µM; in that of `CS(=O)(=O)Nc1cc(Cl)cc(NC(=O)c2cnn(-c3ncccc3Oc3cccc(F)c3)c2)c1` [Example 427], 0.305 µM.
As for `CS(=O)(=O)Nc1cc(Cl)cc(NC(=O)c2cnn(-c3ccccc3COc3cncc(F)c3)c2)c1` [Example 428], the EC50 was determined as 0.201 µM.
Same read-out and setting: in the case of `CN1CCN(c2csc(C(=O)Nc3cc(Cl)cc(NS(C)(=O)=O)c3)c2)C1=O` [Example 431] it was 0.447 µM; in that of `CS(=O)(=O)Nc1cc(Cl)cc(NC(=O)c2cc(N3CCOC3=O)cs2)c1` [Example 433], 1.41 µM.
With `Cc1sc(C(=O)Nc2cc(Cl)cc(NS(C)(=O)=O)c2)cc1N1CCCC1=O` [Example 434], the EC50 turned out to be 2.32 µM.
The same measure, in the same setting: the same measure for `COc1cnn(-c2csc(C(=O)Nc3cc(Cl)cc(NS(C)(=O)=O)c3)c2)c1` [Example 435]: 1.15 µM.
Regarding `Cc1sc(C(=O)Nc2cc(Cl)cc(NS(C)(=O)=O)c2)cc1-n1cc(F)cn1` [Example 439], the EC50 was found to be 0.199 µM.
Still for that read-out and setting: in the case of `CS(=O)(=O)Nc1cc(Cl)cc(NC(=O)c2cc(-n3cc(F)cn3)cs2)c1` [Example 440] it was 0.37 µM; in that of `CS(=O)(=O)Nc1cc(Cl)cc(NC(=O)c2cc(-c3ncc(F)cn3)c(C3CC3)s2)c1` [Example 448], 2.73 µM; in that of `CCS(=O)(=O)Nc1cc(Cl)cc(NC(=O)c2cc(-c3ncc(F)cn3)c(C3CC3)s2)c1` [Example 449], 0.86 µM.
With `CS(=O)(=O)Nc1cc(Cl)cc(NC(=O)c2cc(C3CC3)n(-c3ncc(F)cn3)c2)c1` [Example 451], the EC50 was 1.05 µM.
Still for that read-out and setting: in the case of `Cn1cc(C(=O)Nc2cc(Cl)cc(NS(C)(=O)=O)c2)cc1-c1ccc(C(F)(F)F)cn1` [Example 569] it was 0.146 µM; in that of `Cn1cc(C(=O)Nc2cc(Cl)cc(NS(C)(=O)=O)c2)cc1-c1ccc(C#N)cn1` [Example 570], 0.224 µM; in that of `Cn1cc(C(=O)Nc2cc(Cl)cc(NS(C)(=O)=O)c2)cc1-c1ccc(F)cn1` [Example 575], 0.215 µM.
With `Cn1cc(C(=O)Nc2cc(Cl)cc(NS(C)(=O)=O)c2)cc1-c1ccc(Cl)cn1` [Example 576], the EC50 was 0.128 µM.
Still for that read-out and setting: in the case of `Cn1cc(C(=O)Nc2cc(Cl)cc(NS(C)(=O)=O)c2)cc1-c1ncc(Cl)cn1` [Example 577] it was 0.153 µM.
The same measure, in the same setting: the same measure for `Cc1cc(C(=O)Nc2cc(Cl)cc(NS(C)(=O)=O)c2)cn1-c1ncc(Cl)cn1` [Example 578]: 0.491 µM.
Still for that read-out and setting: the same measure for `Cn1cc(C(=O)Nc2cc(Cl)cc(NS(C)(=O)=O)c2)cc1-c1ncc(F)cc1-c1cncc(F)c1` [Example 604, N-(3-chloro-5-methanesulfonamidophenyl)-5-{5,5′-difluoro-[3,3′-bipyridin]-2-yl}-1-methylpyrrole-3-carboxamide]: 0.16 µM; for `Cc1sc(C(=O)Nc2cc(Cl)cc(NS(C)(=O)=O)c2)cc1-c1ncc(F)cc1-c1ccn(C)c(=O)c1` [Example 605]: 5.33 µM.
On to `Cc1sc(C(=O)Nc2cc(Cl)cc(NS(C)(=O)=O)c2)cc1-c1ncc(F)cc1-c1ccc(=O)n(C)c1` [Example 606], for which the EC50 came to 1.51 µM.
On the same count and under the same terms, in the case of `Cc1sc(C(=O)Nc2cc(Cl)cc(NS(C)(=O)=O)c2)cc1-c1ncc(F)cc1-c1cncc(F)c1` [Example 607] it was 0.126 µM; in that of `Cc1ncccc1-c1cc(F)cnc1-c1cc(C(=O)Nc2cc(Cl)cc(NS(C)(=O)=O)c2)sc1C` [Example 608], 0.422 µM.
With `CS(=O)(=O)Nc1cc(Cl)cc(NC(=O)c2cc(C(=O)N3CC4(CNC4)C3)n(-c3ccccn3)c2)c1` [Example 643], the EC50 is greater than 10 µM.
The same measure, in the same setting: in the case of `CS(=O)(=O)Nc1cc(Cl)cc(NC(=O)c2cc(C(=O)N3CCCCC3)n(-c3ccccn3)c2)c1` [Example 644] it was 8.72 µM.
Consider `CC(C)(C)OC(=O)N1CC(n2cc(C(=O)Nc3cc(Cl)cc(NS(C)(=O)=O)c3)cc2-c2ncc(F)cn2)C1` [Example 645], for which the EC50 was 1.26 µM.
In the case of `CS(=O)(=O)Nc1cc(Cl)cc(NC(=O)c2cc(C(=O)N3CCN(CC(F)(F)F)CC3)n(-c3ccccn3)c2)c1` [Example 649], the EC50 was 9.93 µM.
Regarding `CC(C)(O)c1cc(C(=O)Nc2cc(Cl)cc(NS(C)(=O)=O)c2)cn1-c1ccccn1` [Example 650], the EC50 is 0.859 µM.
On the same count and under the same terms, the same measure for `CS(=O)(=O)Nc1cc(Cl)cc(NC(=O)c2cc(C(=O)N3CCN(c4ccccc4)CC3)n(-c3ccccn3)c2)c1` [Example 654]: 5.31 µM; for `Cn1cc(C(=O)Nc2cc(Cl)cc(NS(C)(=O)=O)c2)cc1-c1ncccc1Oc1cccnc1` [Example 655]: 4.52 µM.
Same read-out and setting: in the case of `Cc1cc(C(=O)Nc2cc(Cl)cc(NS(C)(=O)=O)c2)cn1-c1ncc(S(C)(=O)=O)cn1` [Example 656] it was 0.239 µM; in that of `Cc1cc(C(=O)Nc2cc(Cl)cc(NS(C)(=O)=O)c2)cn1-c1ncc([S+](C)[O-])cn1` (stereo not drawn) [Example 657], 0.817 µM.
Still for that read-out and setting: the same measure for `CSc1cnc(-n2cc(C(=O)Nc3cc(Cl)cc(NS(C)(=O)=O)c3)cc2C)nc1` [Example 658]: 0.425 µM; for `CN1CCN(c2csc(C(=O)Nc3cc(Cl)cc(NS(C)(=O)=O)c3)c2)CC1=O` [Example 661]: greater than 10 µM.
As for `CN1CCN(C(=O)c2cc(C(=O)Nc3cc(Cl)cc(NS(C)(=O)=O)c3)cn2-c2ccccn2)CC1` [Example 665], the EC50 is 4.99 µM.
Same read-out and setting: the same measure for `Cc1cc(C(=O)Nc2cc(Cl)cc(NS(C)(=O)=O)c2)cn1-c1ncc(OC2COC2)cn1` [Example 669]: 0.124 µM; for `Cc1cc(C(=O)Nc2cc(Cl)cc(NS(C)(=O)=O)c2)cn1-c1ccc(N(C)C2CCOC2)cn1` (stereo not drawn) [Example 674]: 0.0289 µM.
As for `CS(=O)(=O)Nc1cc(Cl)cc(NC(=O)c2cnn(-c3ncccc3Oc3cccnc3)c2)c1` [Example 676], the EC50 was 0.806 µM.
As for `COCc1cc(C(=O)Nc2cc(Cl)cc(NS(C)(=O)=O)c2)cn1-c1ncccc1F` [Example 682], the EC50 came out at 0.149 µM.
Still for that read-out and setting: the same measure for `Cc1sc(C(=O)Nc2cc(Cl)cc(NS(C)(=O)=O)c2)cc1N1C(=O)N(c2ccccn2)C(C)(C)C1=O` [Example 685]: 0.769 µM.
Still for that read-out and setting: in the case of `CS(=O)(=O)Nc1cc(Cl)cc(NC(=O)c2cc3c(s2)CCC3Oc2cccnc2)c1` (stereo not drawn) [Example 687] it was 3.56 µM.
Consider `CS(=O)(=O)Nc1cc(Cl)cc(NC(=O)c2cc(-c3ccc(F)cn3)n(CCO)c2)c1` [Example 689], for which the half-maximal effective concentration (EC50) was 0.34 µM.
The same measure, in the same setting: in the case of `CS(=O)(=O)Nc1cc(Cl)cc(NC(=O)c2cnn(-c3ncc(N4CC5(COC5)C4)cc3O)c2)c1` [Example 691] it was 0.291 µM; in that of `Cc1sc(C(=O)Nc2cc(Cl)cc(NS(C)(=O)=O)c2)cc1-c1cn(C2CCOCC2)nn1` [Example 692], 0.142 µM; in that of `CCOc1cnc(-n2cc(C(=O)Nc3cc(Cl)cc(NS(C)(=O)=O)c3)cc2C(F)(F)F)nc1` [Example 693], 0.858 µM.
Same read-out and setting: the same measure for `Cc1sc(C(=O)Nc2cc(Cl)cc(NS(C)(=O)=O)c2)cc1-c1nccn1CCc1ccccc1` [Example 698]: 2.49 µM; for `Cc1sc(C(=O)Nc2cc(Cl)cc(NS(C)(=O)=O)c2)cc1-c1ncc(F)cc1-c1cnco1` [Example 705]: 0.679 µM; for `CS(=O)(=O)Nc1cc(Cl)cc(NC(=O)c2cc(Cl)n(-c3ncc(F)cn3)c2)c1` [Example 709]: 1.24 µM.
As for `CN(C)C(=O)c1cccc(OCc2cccc(F)c2)c1-n1cc(C(=O)Nc2cc(Cl)cc(NS(C)(=O)=O)c2)cn1` [Example 717], the EC50 was greater than 10 µM.
As to `CS(=O)(=O)Nc1cc(Cl)cc(NC(=O)c2cnn(-c3ncc(F)cc3OCc3cnco3)c2)c1` [Example 719], the EC50 came to 2.28 µM.
On to `CS(=O)(=O)Nc1cc(Cl)cc(NC(=O)c2cnn(-c3c(F)cccc3OCc3cnco3)c2)c1` [Example 721], for which the EC50 was 1.57 µM.
Same read-out and setting: the same measure for `CS(=O)(=O)Nc1cc(Cl)cc(NC(=O)c2cc(C(=O)N3CCOCC3)n(-c3ccccn3)c2)c1` [Example 731]: greater than 10 µM.

Another test deals with circBRIP1 in HCT116 cells. As to the kind of experiment: DHX9 circBRIP1 cellular target engagement TaqMan Multiplex assay (qPCR). In kind it is cell-based. To be noted: Homo sapiens, HCT-116, 72 h, circBRIP1, HCT116 cells, 72 hours; Taqman assay (marked *); read-out: DHX9 Cellular Target Engagement EC50.
Regarding `Cc1cc(F)cnc1-c1cc(C(=O)Nc2cc(Cl)cc(NS(C)(=O)=O)c2)sc1C` [Example 348], the EC50 was 0.228 µM.
As to `CCS(=O)(=O)Nc1cc(Cl)cc(NC(=O)c2cc(-c3ncc(F)cc3C)c(C)s2)c1` [Example 350], the EC50 was determined as 0.257 µM.
On to `CCS(=O)(=O)Nc1cc(Cl)cc(NC(=O)c2cc(-c3ncc(F)cc3Cl)c(C)s2)c1` [Example 355], for which the EC50 was 0.362 µM.
As for `Cc1sc(C(=O)Nc2cc(Cl)cc(NS(C)(=O)=O)c2)cc1-c1ncc(C(F)(F)F)cn1` [Example 357], the concentration giving a half-maximal response (EC50) was found to be 0.119 µM.
In the case of `Cc1sc(C(=O)Nc2cc(Cl)cc(NS(C)(=O)=O)c2)cc1-c1ncc(F)cc1Cl` [Example 359], the EC50 amounted to 0.13 µM.
Take `Cc1sc(C(=O)Nc2cc(Cl)cc(NS(C)(=O)=O)c2)cc1-c1c(F)cncc1F` [Example 362]: the EC50 was 0.124 µM.
On the same count and under the same terms, the same measure for `Cn1cc(C(=O)Nc2cc(Cl)cc(NS(C)(=O)=O)c2)cc1-c1ncc(F)cc1OC(F)F` [Example 363]: 0.171 µM; for `COc1cnc(-c2cc(C(=O)Nc3cc(Cl)cc(NS(C)(=O)=O)c3)sc2C)c(Cl)c1` [Example 364]: 0.387 µM; for `CCS(=O)(=O)Nc1cc(Cl)cc(NC(=O)c2cc(-c3ncc(C(F)(F)F)cn3)c(C)s2)c1` [Example 366]: 0.128 µM.
Same read-out and setting: the same measure for `Cc1sc(C(=O)Nc2cc(Cl)cc(NS(C)(=O)=O)c2)cc1-c1ncc(C(F)(F)F)cc1C#N` [Example 367]: 0.219 µM.
`Cc1sc(C(=O)Nc2cc(Cl)cc(NS(C)(=O)=O)c2)cc1-c1ncc(C(F)(F)F)cc1F` [Example 368]: the EC50 stood at 0.31 µM.
For `CS(=O)(=O)Nc1cc(Cl)cc(NC(=O)c2cc(-c3ccc(C(F)(F)F)cn3)cs2)c1` [Example 370], the EC50 came to 0.171 µM.
As for `CS(=O)(=O)Nc1cc(Cl)cc(NC(=O)c2cc(-c3ncc(C(F)(F)F)cc3F)cs2)c1` [Example 371], the EC50 came to 0.311 µM.

The EC50 is the concentration at which the effect is half-maximal.
